# Measurements reported in publication PMC9576799, “Discovery of small molecule inhibitors that effectively disrupt IQGAP1-Cdc42 interaction in breast cancer cells” (Scientific Reports, 2022).
# Target: T1, GST-IQGAP1-C / His-Cdc42-Q61L (Homo sapiens, UniProt P46940)
# T1 construct: the C-terminal half of IQGAP1 (comprising amino acids 864–1657) containing a GST-tag; made in house; host or cells: Escherichia coli (BL-21 for GST-IQGAP1-C)
# T1 sequence (P46940 864-1657): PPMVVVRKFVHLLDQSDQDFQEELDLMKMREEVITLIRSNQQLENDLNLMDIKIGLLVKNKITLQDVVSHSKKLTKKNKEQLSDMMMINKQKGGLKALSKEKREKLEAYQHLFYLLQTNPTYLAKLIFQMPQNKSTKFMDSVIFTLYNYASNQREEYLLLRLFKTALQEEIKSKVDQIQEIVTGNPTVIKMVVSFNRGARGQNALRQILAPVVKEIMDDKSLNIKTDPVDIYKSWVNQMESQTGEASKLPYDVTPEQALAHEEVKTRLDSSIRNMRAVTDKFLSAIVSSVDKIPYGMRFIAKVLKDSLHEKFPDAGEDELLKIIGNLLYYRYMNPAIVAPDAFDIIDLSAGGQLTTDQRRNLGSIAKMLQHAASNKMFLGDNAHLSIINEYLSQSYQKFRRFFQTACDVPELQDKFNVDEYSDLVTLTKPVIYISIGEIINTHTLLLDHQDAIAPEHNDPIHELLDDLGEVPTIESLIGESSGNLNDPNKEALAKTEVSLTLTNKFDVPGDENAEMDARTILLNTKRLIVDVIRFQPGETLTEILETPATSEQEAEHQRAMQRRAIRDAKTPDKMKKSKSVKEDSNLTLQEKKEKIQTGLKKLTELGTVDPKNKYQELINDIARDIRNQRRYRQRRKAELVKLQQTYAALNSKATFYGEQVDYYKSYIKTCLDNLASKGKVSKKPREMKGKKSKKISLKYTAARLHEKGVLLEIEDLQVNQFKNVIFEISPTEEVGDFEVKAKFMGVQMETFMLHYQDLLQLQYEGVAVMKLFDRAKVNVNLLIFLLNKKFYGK
# Test: HTRF IQGAP1-Cdc42 binding assay (validation / confirmatory)
# Conditions: 50 nM His-Cdc42-Q61L, 1.5 nM GST-IQGAP1-C
# Experimental: Recombinant His-Cdc42-Q61L, GST-IQGAP1-C in combination with acceptor XL665 conjugated anti-His antibody (Anti-His-XL665) and donor Eu-cryptate conjugated anti-GST antibody (anti-GST-cryptate) were used for the HTRF assay to perform a high throughput screening of compound libraries in 1536-well white solid bottom medium-binding plates (Greiner Bio-One).
# For the assay, His-Cdc42-Q61L and GST-IQGAP1-C proteins were diluted and pre-mixed in the binding buffer (50 mM Tris, pH 7.5, 150 mM NaCl and 0.01% Triton-X100) to final assay concentrations of 50 nM His-Cdc42-Q61L and 1.5 nM GST-IQGAP1-C. As control, 1.5 nM GST-IQGAP1-C in the absence of His-Cdc42-Q61L was used to gauge the maximal potential inhibition (IC100). Anti-His-XL665 and anti-GST-cryptate antibodies were prepared as threefold concentrated working mixture in binding buffer just prior to dispensing, with final assay concentrations of 5 ng/μL and 0.7 ng/µL, respectively. Pre-mixed proteins (4 µL/well) were dispensed to assay plates with a BioRAPTR FRD™ dispenser. […] The signal was detected immediately with an Envision plate reader (Perkin Elmer) using the HTRF settings (excitation at 340 nm, dual emission at 665 nm and 620 nm). […] The data were calculated as the ratio 665/620 × 10^4 to normalize for any effects in the donor channel. […]
smiles,measurement,setting,value
Cc1cccc(NC(=O)c2c(NC(=O)C(F)(F)F)sc3c2CCCCC3)c1 [NCGC00098561],EC50,,7.94 µM
same,Emax,"3 h, read-out: efficacy, HTRF validation assay",84%
